# Source: the kinase profiling compilation of Christmann-Franck et al. (2016)
# Where “and” joins values, the source holds several entries; their conditions need not be identical. Equal values may be shown once.
# Experiments:
# Assay in all cases: radiometric filter-binding kinase assay
# MAP3K5 (human) = MAP3K5 (human) (UniProt Q99683); details: compound 100.0 µM; ATP 50 µM
# RPS6KA5 KD1 KD2 (human) = RPS6KA5 KD1 KD2 (human) (UniProt O75582); details: compound 100.0 µM; ATP 20 µM
# EEF2K (human) = EEF2K (human) (UniProt O00418); details: compound 100.0 µM; ATP 5 µM
# MYLK (human) = MYLK (human) (UniProt Q15746); details: compound 100.0 µM; ATP 50 µM
# STK16 (human) = STK16 (human) (UniProt O75716); details: compound 100.0 µM; ATP 50 µM
# Sequence of STK16 (human) (O75716 whole entry, looked up): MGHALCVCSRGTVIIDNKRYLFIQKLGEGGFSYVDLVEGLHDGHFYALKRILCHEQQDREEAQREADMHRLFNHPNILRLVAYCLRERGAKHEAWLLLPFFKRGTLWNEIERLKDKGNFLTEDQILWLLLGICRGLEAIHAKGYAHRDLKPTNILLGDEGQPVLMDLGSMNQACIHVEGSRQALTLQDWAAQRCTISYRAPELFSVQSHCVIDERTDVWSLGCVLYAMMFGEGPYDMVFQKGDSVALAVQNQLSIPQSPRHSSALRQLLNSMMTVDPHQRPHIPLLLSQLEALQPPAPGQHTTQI
# MKNK2 (human) = MKNK2 (human) (UniProt Q9HBH9); details: compound 100.0 µM; ATP 50 µM
# MAPK12 (human) = MAPK12 (human) (UniProt P53778); details: compound 100.0 µM; ATP 5 µM
# PHKG1 (human) = PHKG1 (human) (UniProt Q16816); details: compound 100.0 µM; ATP 50 µM
# GCK (human) = GCK (human) (UniProt Q12851); details: compound 100.0 µM; ATP 20 µM
# PRKACA (human) = PRKACA (human) (UniProt P17612); details: compound 100.0 µM; ATP 20 µM
# MARK2 (human) = MARK2 (human) (UniProt Q7KZI7); details: compound 100.0 µM; ATP 20 µM
# Sequence of MARK2 (human) (Q7KZI7 whole entry, looked up): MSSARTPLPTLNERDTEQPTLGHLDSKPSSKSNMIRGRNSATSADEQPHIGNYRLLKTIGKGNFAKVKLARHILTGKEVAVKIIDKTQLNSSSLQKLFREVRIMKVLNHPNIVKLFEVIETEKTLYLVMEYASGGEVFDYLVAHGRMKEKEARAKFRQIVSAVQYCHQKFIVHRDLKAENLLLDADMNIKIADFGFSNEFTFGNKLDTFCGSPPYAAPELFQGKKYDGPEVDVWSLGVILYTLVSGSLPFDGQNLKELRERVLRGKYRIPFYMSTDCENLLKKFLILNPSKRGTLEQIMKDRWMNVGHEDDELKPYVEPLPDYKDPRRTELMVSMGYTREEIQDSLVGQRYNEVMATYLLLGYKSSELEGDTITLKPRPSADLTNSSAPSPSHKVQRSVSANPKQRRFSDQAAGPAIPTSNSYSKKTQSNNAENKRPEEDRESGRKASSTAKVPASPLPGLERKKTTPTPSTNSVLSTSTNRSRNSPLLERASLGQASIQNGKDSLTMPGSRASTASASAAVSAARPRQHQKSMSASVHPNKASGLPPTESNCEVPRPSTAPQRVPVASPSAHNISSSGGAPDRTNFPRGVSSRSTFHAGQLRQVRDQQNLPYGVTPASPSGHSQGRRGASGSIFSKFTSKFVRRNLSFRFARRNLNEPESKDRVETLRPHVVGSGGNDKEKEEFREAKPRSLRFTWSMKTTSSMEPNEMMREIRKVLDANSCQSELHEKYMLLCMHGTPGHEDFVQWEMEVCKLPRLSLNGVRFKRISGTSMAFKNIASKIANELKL
# NUAK1 (human) = NUAK1 (human) (UniProt O60285); details: compound 100.0 µM; ATP 20 µM
# MAPK8 (human) = MAPK8 (human) (UniProt P45983); details: compound 100.0 µM; ATP 20 µM
# ERBB4 (human) = ERBB4 (human) (UniProt Q15303); details: compound 100.0 µM; ATP 5 µM
# CaMK1 (human) = CaMK1 (human) (UniProt Q14012); details: compound 100.0 µM; ATP 50 µM
# PTK6 (human) = PTK6 (human) (UniProt Q13882); details: compound 100.0 µM; ATP 20 µM
# MARK1 (human) = MARK1 (human) (UniProt Q9P0L2); details: compound 100.0 µM; ATP 20 µM
# IKBKE (human) = IKBKE (human) (UniProt Q14164); details: compound 100.0 µM; ATP 50 µM
# Sequence of IKBKE (human) (Q14164 whole entry, looked up): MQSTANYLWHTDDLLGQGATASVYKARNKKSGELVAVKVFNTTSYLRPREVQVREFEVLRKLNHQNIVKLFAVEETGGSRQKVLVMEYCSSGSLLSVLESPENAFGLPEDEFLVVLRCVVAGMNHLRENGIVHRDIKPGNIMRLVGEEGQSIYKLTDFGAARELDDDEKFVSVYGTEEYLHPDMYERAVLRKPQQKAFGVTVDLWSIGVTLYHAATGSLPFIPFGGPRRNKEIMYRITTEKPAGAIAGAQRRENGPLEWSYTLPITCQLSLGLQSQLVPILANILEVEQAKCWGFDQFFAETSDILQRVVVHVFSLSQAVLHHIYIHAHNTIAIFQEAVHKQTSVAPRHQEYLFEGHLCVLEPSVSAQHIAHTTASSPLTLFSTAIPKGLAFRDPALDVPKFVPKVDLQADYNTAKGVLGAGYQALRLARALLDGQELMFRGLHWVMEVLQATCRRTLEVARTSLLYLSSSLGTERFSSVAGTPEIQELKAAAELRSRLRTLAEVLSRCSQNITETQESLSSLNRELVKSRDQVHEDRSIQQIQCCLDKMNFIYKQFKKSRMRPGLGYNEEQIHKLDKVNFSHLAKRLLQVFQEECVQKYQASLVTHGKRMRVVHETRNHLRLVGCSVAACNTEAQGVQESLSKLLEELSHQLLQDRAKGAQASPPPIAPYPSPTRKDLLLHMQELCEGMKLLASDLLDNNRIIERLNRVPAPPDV
# MAPKAPK5 (human) = MAPKAPK5 (human) (UniProt Q8IW41); details: compound 100.0 µM; ATP 20 µM
# AURKA (human) = AURKA (human) (UniProt O14965); details: compound 100.0 µM; ATP 5 µM
# Sequence of AURKA (human) (O14965 whole entry, looked up): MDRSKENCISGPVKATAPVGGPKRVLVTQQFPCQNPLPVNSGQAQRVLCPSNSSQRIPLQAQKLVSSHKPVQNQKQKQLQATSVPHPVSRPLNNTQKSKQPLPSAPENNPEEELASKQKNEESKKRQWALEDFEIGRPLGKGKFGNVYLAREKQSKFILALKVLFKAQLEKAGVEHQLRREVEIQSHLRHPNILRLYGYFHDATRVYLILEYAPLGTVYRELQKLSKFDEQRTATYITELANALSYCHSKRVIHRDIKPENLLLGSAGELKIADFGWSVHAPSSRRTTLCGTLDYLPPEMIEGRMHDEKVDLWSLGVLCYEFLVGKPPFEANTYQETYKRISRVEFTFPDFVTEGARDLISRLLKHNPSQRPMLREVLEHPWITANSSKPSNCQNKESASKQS
# LCK (mouse) = details: compound 100.0 µM; ATP 50 µM; accession and sequence are those of the human protein
# MELK (human) = MELK (human) (UniProt Q14680); details: compound 100.0 µM; ATP 50 µM
# Sequence of MELK (human) (Q14680 whole entry, looked up): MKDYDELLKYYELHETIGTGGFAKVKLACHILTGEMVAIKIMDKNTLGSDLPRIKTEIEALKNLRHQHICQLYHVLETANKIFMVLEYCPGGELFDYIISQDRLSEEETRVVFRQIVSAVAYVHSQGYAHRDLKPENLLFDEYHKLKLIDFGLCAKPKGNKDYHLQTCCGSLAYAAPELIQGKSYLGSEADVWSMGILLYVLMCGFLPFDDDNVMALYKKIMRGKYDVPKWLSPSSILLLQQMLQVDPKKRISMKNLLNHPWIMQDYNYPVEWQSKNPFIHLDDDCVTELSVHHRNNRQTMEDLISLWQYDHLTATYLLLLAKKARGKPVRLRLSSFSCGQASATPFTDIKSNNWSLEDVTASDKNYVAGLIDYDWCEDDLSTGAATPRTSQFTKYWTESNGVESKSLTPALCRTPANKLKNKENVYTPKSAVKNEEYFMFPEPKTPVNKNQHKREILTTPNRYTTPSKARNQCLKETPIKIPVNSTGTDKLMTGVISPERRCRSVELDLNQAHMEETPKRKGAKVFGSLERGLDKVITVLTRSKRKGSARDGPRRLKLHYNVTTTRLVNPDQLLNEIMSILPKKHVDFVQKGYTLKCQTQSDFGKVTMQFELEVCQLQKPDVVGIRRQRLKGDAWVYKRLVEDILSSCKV
# [1] = tested on: PAK2 (human), Q13177 [T402E]; details: compound 100.0 µM; ATP 20 µM
# YES1 (human) = YES1 (human) (UniProt P07947); details: compound 100.0 µM; ATP 20 µM
# Sequence of YES1 (human) (P07947 whole entry, looked up): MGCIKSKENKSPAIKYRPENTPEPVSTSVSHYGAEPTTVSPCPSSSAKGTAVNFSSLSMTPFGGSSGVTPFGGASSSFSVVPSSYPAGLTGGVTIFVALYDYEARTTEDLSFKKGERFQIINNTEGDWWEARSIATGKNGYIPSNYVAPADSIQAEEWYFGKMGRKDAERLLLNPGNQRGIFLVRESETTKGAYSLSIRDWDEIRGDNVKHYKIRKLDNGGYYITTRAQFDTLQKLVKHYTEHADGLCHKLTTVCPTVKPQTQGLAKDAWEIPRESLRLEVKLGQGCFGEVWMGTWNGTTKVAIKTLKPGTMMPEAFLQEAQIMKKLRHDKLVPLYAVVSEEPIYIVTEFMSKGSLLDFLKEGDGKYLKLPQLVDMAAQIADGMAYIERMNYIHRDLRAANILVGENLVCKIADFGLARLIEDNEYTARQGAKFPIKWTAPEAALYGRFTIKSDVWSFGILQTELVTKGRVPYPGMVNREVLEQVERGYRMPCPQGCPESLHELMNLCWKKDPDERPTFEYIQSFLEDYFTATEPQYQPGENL
# ABL1 (human) = ABL1 (human) (UniProt P00519); details: compound 100.0 µM; ATP 5 µM
# MAP3K9 (human) = MAP3K9 (human) (UniProt P80192); details: compound 100.0 µM; ATP 20 µM
# MAPK3 (human) = MAPK3 (human) (UniProt P27361); details: compound 100.0 µM; ATP 5 µM
# GSK3B (human) = GSK3B (human) (UniProt P49841); details: compound 100.0 µM; ATP 5 µM
# PAK4 (human) = PAK4 (human) (UniProt O96013); details: compound 100.0 µM; ATP 5 µM
# SYK (human) = SYK (human) (UniProt P43405); details: compound 100.0 µM; ATP 20 µM
# MAPKAPK2 (human) = MAPKAPK2 (human) (UniProt P49137); details: compound 100.0 µM; ATP 20 µM
# IKBKB (human) = IKBKB (human) (UniProt O14920); details: compound 100.0 µM; ATP 5 µM
# Sequence of IKBKB (human) (O14920 whole entry, looked up): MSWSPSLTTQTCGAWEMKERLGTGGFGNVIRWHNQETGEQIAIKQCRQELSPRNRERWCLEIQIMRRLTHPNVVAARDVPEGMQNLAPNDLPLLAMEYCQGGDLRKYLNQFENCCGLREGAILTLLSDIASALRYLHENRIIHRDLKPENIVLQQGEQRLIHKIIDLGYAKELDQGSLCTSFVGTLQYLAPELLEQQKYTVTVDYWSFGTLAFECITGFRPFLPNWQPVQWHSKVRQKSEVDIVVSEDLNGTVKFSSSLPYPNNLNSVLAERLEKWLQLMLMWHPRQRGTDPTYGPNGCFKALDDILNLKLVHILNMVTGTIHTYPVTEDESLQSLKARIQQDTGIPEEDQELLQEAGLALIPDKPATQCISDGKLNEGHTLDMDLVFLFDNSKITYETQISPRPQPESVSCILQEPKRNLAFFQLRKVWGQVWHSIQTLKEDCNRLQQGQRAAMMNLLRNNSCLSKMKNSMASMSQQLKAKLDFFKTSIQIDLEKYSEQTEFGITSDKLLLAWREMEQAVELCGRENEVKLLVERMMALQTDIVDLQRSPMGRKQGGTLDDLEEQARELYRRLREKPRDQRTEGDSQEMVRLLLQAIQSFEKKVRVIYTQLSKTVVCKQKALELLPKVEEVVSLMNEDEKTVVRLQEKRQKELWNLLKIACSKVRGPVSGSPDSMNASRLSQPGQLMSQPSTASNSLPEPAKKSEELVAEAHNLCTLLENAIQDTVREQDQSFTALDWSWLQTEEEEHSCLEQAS
# MAP3K11 (human) = MAP3K11 (human) (UniProt Q16584); details: compound 100.0 µM; ATP 20 µM
# Sequence of MAP3K11 (human) (Q16584 whole entry, looked up): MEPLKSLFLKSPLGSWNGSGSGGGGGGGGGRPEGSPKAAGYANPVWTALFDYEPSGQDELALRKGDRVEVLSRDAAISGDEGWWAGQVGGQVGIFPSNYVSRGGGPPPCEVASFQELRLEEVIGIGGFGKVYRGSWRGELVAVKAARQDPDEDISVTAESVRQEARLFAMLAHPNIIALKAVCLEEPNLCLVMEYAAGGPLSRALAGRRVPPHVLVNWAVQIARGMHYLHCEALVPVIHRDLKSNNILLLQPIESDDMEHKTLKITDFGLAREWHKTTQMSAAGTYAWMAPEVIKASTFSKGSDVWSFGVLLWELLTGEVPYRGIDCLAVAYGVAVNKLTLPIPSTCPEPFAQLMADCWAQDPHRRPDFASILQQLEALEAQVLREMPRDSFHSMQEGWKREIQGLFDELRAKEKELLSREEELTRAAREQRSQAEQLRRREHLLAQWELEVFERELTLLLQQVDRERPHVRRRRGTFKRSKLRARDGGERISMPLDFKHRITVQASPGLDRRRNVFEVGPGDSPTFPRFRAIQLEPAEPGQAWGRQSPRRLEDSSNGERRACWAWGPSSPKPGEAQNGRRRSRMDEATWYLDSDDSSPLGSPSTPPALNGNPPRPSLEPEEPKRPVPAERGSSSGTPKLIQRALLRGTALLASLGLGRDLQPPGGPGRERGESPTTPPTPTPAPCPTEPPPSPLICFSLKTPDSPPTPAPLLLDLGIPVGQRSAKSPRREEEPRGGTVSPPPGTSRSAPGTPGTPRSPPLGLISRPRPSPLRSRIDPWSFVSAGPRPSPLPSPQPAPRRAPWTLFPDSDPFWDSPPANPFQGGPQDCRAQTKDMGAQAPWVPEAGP
# NEK6 (human) = NEK6 (human) (UniProt Q9HC98); details: compound 100.0 µM; ATP 50 µM
# PDPK1 (human) = PDPK1 (human) (UniProt O15530); details: compound 100.0 µM
Structure (SMILES),inhibition (MAP3K5 (human)),inhibition (RPS6KA5 KD1 KD2 (human)),inhibition (EEF2K (human)),inhibition (MYLK (human)),inhibition (STK16 (human)),inhibition (MKNK2 (human)),inhibition (MAPK12 (human)),inhibition (PHKG1 (human)),inhibition (GCK (human)),inhibition (PRKACA (human)),inhibition (MARK2 (human)),inhibition (NUAK1 (human)),inhibition (MAPK8 (human)),inhibition (ERBB4 (human)),inhibition (CaMK1 (human)),inhibition (PTK6 (human)),inhibition (MARK1 (human)),inhibition (IKBKE (human)),inhibition (MAPKAPK5 (human)),inhibition (AURKA (human)),further results
Cc1cccc(C)c1-c1cn2nc(N)nc2cn1,15%,6%,13%,12%,6%,30%,0%,41%,59%,0% and 19%,0%,28%,7%,28%,52%,15%,15%,28%,26%,12%,inhibition (LCK (mouse)): 37%; inhibition (MELK (human)): 8%; inhibition [1]: 56%; inhibition (YES1 (human)): 42%; inhibition (ABL1 (human)): 14%; inhibition (MAP3K9 (human)): 18%; inhibition (MAPK3 (human)): 31%; inhibition (GSK3B (human)): 27%; inhibition (PAK4 (human)): 0%; inhibition (SYK (human)): 26%; inhibition (MAPKAPK2 (human)): 14%; inhibition (IKBKB (human)): 0%; inhibition (MAP3K11 (human)): 0%; inhibition (NEK6 (human)): 3%; inhibition (PDPK1 (human); ATP 20 µM): 15%; inhibition (PDPK1 (human); ATP 50 µM): 13%
CC(=O)Nc1nc2cnc(-c3c(C)cccc3C)cn2n1,0%,0%,7%,0%,0%,0%,0%,0%,0%,0% and 1%,0%,0%,0%,9%,35%,0%,0%,0%,17%,10%,inhibition (LCK (mouse)): 0%; inhibition (MELK (human)): 0%; inhibition [1]: 0%; inhibition (YES1 (human)): 17%; inhibition (ABL1 (human)): 18%; inhibition (MAP3K9 (human)): 0%; inhibition (MAPK3 (human)): 10%; inhibition (GSK3B (human)): 8%; inhibition (PAK4 (human)): 0%; inhibition (SYK (human)): 10%; inhibition (MAPKAPK2 (human)): 0%; inhibition (IKBKB (human)): 0%; inhibition (MAP3K11 (human)): 0%; inhibition (NEK6 (human)): 0%; inhibition (PDPK1 (human); ATP 20 µM): 0%; inhibition (PDPK1 (human); ATP 50 µM): 0%
O=c1c(NC(=S)NCc2ccccc2)cnc2[nH]ccn12,0%,0%,6%,0%,0%,13%,0%,24%,0%,0%,0%,0%,0%,34%,6%,31%,13%,0%,0%,8%,inhibition (LCK (mouse)): 0%; inhibition (MELK (human)): 0%; inhibition [1]: 5%; inhibition (YES1 (human)): 0%; inhibition (ABL1 (human)): 0%; inhibition (MAP3K9 (human)): 0%; inhibition (MAPK3 (human)): 7%; inhibition (GSK3B (human)): 13%; inhibition (PAK4 (human)): 18%; inhibition (SYK (human)): 12%; inhibition (MAPKAPK2 (human)): 23%; inhibition (IKBKB (human)): 0%; inhibition (MAP3K11 (human)): 11%; inhibition (NEK6 (human)): 6%; inhibition (PDPK1 (human); ATP 20 µM): 0%; inhibition (PDPK1 (human); ATP 50 µM): 0%
